Where two headings read alike, the source gives them in different places.
Key:
[1] = in vivo pharmacokinetic experiment in mice; parameters: species or system ICR mice; conditions: male, ICR, mouse; oral intragastric administration 10 mg/kg, single, plasma
Experimental: Male ICR mice were subjected to oral intragastric administration. The plasma concentrations of the compounds of the present disclosure in the mice were measured, the PK parameters were calculated, and pharmacokinetic evaluation was performed on the compounds of the present disclosure.
Drug preparation: according to the weight of the weighed drug, the preparation volume was calculated; 5% of DMSO and 5% of HS-15 were added sequentially; after the drug was fully dissolved, 90% of a 20% aqueous β-cyclodextrin solution was added, and the mixture was well mixed for later use.
Route of administration: oral intragastric administration, at a dose of 10 mg/kg.
Administration frequency and duration: single administration.
ICR mice were stratified according to body weight and then randomly grouped, with 9 mice per group. The mice were fasted overnight prior to the experiment. The mice were subjected to oral intragastric administration. At 0 h, 0.167 h, 0.333 h, 0.5 h, 1 h, 2 h, 4 h, 6 h, 8 h, 12 h, and 24 h, 50 µL of blood was collected from the fundus vein of each mouse into a sample tube containing heparin sodium as an anticoagulant, and then the tube was placed in wet ice and centrifuged at 4000 r·min^-1 for 10 min. The plasma was separated, and cryopreserved in a refrigerator at -80 °C for testing.
The concentrations of the plasma samples were measured by high-performance liquid chromatography-tandem mass spectrometry (LC-MS/MS). The retention times of the compounds and internal standard, chromatographic acquisitions, and integrals of chromatograms were processed using the software Analyst (AB SCIEX), and statistical analysis of the data was performed using the software Microsoft office. The plasma concentrations were processed using a non-compartmental model of the pharmacokinetic software WinNonlin™ Version 6.3 (Pharsight, Mountain View, CA), and the pharmacokinetic parameters were calculated using a linear log-trapezoidal method. Table 4. Results of pharmacokinetic experiment in mice

GABAa receptor (α1β2γ2) = GABAa receptor (α1β2γ2) (Homo sapiens, UniProt P14867+P47870); assay: in vitro GABAa receptor (α1β2γ2) cellular activity assay, manual whole-cell patch clamp, enhancement of currents induced by 1 µM GABA; format: cell-based; conditions: for Emax compared to Sage-217: conclusion in words from Table 1-2
Experimental: The cells used in this experiment were derived from a CHO cell line that stably expressed normal GABAa receptor functions after transfection with human GABAa receptor α1, β2, and γ2 subunit cDNAs. The cell line was constructed by B'sys GmbH. The cells were cultured in a medium (purchased from Invitrogen) containing the following components: DMEM culture medium; 10% (v/v) inactivated fetal bovine serum; 5 µg/mL Puromycin; 250 µg/mL Hygromycin B; and 100 µg/mL Zeocin. The cells were grown in culture dishes containing the above medium and cultured in an incubator at 37 °C with 5% CO2. 12 h to 24 h before the electrophysiological experiment, the cells were transferred onto circular glass slides placed in culture dishes, and were grown under the same medium and culture conditions as above. The density of cells on each circular glass slide was required to meet the requirement that the overwhelming majority of cells were independent and individual.
In this experiment, a manual patch-clamp system HEKA EPC10 USB signal amplifier and digital conversion system (purchased from HEKA Electronics, Germany) were used for whole-cell current recording. The circular glass slides with surface-grown CHO GABAa cells (see the cell culture and requirement section above) were taken out from the culture dishes and then placed into an electrophysiological recording chamber under an inverted microscope. The recording chamber was continuously perfused with extracellular fluid (approximately 1-2 mL/min). In the experiment, the whole-cell current recording technique was employed to record chloride ion currents of GABAa channels. 1 µM GABA was used to activate chloride ion currents of GABAa channels on each cell as an initial control (the reason for using 1 µM GABA concentration was that: this concentration was an effective activation concentration for the GABAa ion channel agonist GABA on the cells used in this experiment, falling between 10% and 20%). Unless otherwise specified, the experiment was performed at conventional room temperature (about 25 °C), and only cells meeting the electrophysiological recording criteria were adopted. In the experiment, the cells were ruptured and sealed, and were clamped at -80 mV after entering a whole-cell state. 1 µM GABA acted on the cells through the drug perfusion system to induce chloride ion currents of GABAa channels; the action time was about 4 s, and the current magnitude was used as the initial control value. Subsequently, the cells were perfused and incubated with the test concentration compound for 3 min, and then a mixed solution of 1 µM GABA and the corresponding test concentration compound was applied to act on the cells to induce currents, so as to observe the enhancing effect of the test compound on the currents induced by 1 µM GABA. When the cell state stabilized, the test compound would be applied from low to high concentrations to act on the same cell. In the experiment, to avoid current reduction caused by desensitization of GABAa ion channels, the interval time for the test substance acting on the cells through the drug perfusion system was at least 180 s.
The experimental data were analyzed using data analysis software provided by HEKA Patchmaster, Microsoft Excel, and Graphpad Prism.

[2] = tested on: mice with PTZ-induced convulsions; assay: in vivo efficacy experiment in PTZ-induced epilepsy mouse model; parameters: species or system C57 mice; conditions: for Survival rate: 60 min before PTZ 120 mg/kg s.c., 30 min observation; for Number of clonic seizures / Number of tonic seizures / Clonic seizure latency period / Tonic seizure latency period: Mean ± SEM; for Clonic seizure latency period / Tonic seizure latency period: no seizure in 30 min recorded as 1800 s; for protective effects against acute epileptic seizures: conclusion in words
Experimental: Male C57 mice, purchased from SPF (Suzhou) Biotechnology Co., Ltd.
PTZ: a 120 mg/kg PTZ solution (administration volume: 10 mL/kg) was prepared with normal saline as the solvent.
Test compounds: solutions of the test compounds at 3/1/0.3 mg/kg (administration volume: 10 mL/kg) were prepared with Vehicle in section 1.4 as the solvent.
One hour before the test, the experimental animals were transferred into an operation room for acclimation.
The mice were randomly grouped, marked, and weighed, with 10 mice in each group. At 60 min before PTZ administration, the test compounds and Vehicle were separately orally administered.
The PTZ solution was administered subcutaneously before experimental observation, and this time point was recorded as the observation starting point.
Immediately after PTZ administration, the animals were placed in observation boxes and observed for 30 min. The following observations of the animals were recorded:
Clonic seizure: the animal has a generalized myoclonus that lasts for more than 3 s and is accompanied by falling.
Tonic seizure: the limbs are straightened at a 90° angle to the torso.
All metrology data were expressed as mean ± standard error of mean (Mean ± SEM), and the Prism 8.0 statistical software was used for data testing and analysis.

[3] = positive modulator enhancing GABAa receptor currents induced by 1 µM GABA, CHO cells, read-out: EC50

Chain of GABAa receptor (α1β2γ2) (P14867 28-456): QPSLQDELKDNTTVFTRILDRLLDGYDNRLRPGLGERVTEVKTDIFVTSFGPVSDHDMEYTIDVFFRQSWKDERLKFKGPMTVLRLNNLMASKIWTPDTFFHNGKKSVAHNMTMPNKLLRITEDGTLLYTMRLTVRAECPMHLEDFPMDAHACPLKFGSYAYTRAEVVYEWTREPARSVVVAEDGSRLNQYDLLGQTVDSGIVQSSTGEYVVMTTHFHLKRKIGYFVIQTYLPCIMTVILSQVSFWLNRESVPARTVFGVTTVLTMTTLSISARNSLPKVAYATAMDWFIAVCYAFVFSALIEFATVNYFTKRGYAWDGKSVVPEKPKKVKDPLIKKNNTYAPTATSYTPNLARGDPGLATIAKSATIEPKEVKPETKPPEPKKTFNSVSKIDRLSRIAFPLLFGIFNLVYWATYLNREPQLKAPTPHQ
Chain of GABAa receptor (α1β2γ2) (P47870 25-512 limits assumed): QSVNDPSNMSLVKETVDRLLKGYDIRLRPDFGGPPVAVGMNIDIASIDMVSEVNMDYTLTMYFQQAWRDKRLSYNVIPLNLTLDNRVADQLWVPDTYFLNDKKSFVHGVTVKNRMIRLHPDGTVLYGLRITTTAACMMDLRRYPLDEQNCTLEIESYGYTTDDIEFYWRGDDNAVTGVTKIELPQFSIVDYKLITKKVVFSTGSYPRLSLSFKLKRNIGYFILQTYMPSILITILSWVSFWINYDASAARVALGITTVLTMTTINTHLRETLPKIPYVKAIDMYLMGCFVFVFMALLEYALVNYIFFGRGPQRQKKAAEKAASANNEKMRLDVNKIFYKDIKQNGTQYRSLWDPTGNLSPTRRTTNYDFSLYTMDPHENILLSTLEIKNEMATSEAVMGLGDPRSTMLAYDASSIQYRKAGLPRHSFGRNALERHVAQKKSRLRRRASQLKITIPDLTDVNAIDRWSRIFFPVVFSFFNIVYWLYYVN
Chain of GABAa receptor (α1β2γ2) (P18507 40-475 partner): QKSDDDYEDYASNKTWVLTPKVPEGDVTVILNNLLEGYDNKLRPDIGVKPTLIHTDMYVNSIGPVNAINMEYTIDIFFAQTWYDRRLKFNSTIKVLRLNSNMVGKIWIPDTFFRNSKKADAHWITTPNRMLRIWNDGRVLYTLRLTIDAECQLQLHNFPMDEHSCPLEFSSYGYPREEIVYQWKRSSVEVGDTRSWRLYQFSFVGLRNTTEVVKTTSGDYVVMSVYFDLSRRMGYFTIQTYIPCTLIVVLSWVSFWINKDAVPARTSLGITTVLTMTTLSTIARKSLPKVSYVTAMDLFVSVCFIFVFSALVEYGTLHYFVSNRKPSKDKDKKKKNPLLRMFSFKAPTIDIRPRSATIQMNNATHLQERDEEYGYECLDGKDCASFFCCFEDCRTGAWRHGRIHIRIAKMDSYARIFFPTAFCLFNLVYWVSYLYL

Structure (SMILES)	AUC(0-t) [1]	Cmax [1]	Tmax [1]	half-life [1]	Emax compared to Sage-217 (GABAa receptor (α1β2γ2))	EC50 (GABAa receptor (α1β2γ2); [3])	Survival rate ([2]; dose 0.3 mg/kg p.o.)	Survival rate ([2]; dose 1 mg/kg p.o.)	Survival rate ([2]; dose 3 mg/kg p.o.)	Number of clonic seizures ([2]; dose 3 mg/kg p.o.)	Number of tonic seizures ([2]; dose 3 mg/kg p.o.)	Clonic seizure latency period ([2]; dose 3 mg/kg p.o.)	Tonic seizure latency period ([2]; dose 3 mg/kg p.o.)	protective effects against acute epileptic seizures ([2]; extremely low dose (0.3 mpk))	protective effects against acute epileptic seizures ([2]; low dose (1 mpk))	activation at 0.1 µM (GABAa receptor (α1β2γ2); single concentration 0.1 µM, relative enhancement amplitude of GABAa receptor currents induced by 1 µM GABA, CHO cells, read-out: Agonist ratio)	EC50 (GABAa receptor (α1β2γ2))
C[C@@H]1C[C@H](C(=O)Cn2ncnn2)[C@@]2(C)CC[C@H]3[C@@H](CC[C@@H]4C[C@](C)(O)[C@@H](C)C[C@@H]43)[C@H]12 [Example 9, 1-((2S,3S,5R,8R,9R,10S,13S,14S,15R,17S)-3-Hydroxy-2,3,13,15-tetramethylhexadecahydro-1H-cyclopenta[a]phenanthren-17-yl)-2-(2H-tetrazol-2-yl)ethan-1-one]	23600 ng·h/mL	3480 ng/mL	0.33 h	2.35 h	lower Emax compared to Sage-217	40 nM	10%	100%	100%	0.2±0.1	0.0±0.0	1649.7 ± 105.0 s	1800.0 ± 0.0 s	partial protective effects	significant protective effects	–	–
C[C@H]1C[C@H]2[C@H](CC[C@@H]3[C@@H]2CC[C@]2(C)[C@@H](C(=O)Cn4ncnn4)CC[C@@H]32)C[C@]1(C)O [Example 20, 1-((2S,3S,5R,8R,9R,10S,13S,14S,17S)-3-Hydroxy-2,3,13-trimethylhexadecahydro-1H-cyclopenta[a]phenanthren-17-yl)-2-(2H-tetrazol-2-yl)ethan-1-one]	32200 ng·h/mL	2580 ng/mL	0.5 h	2.59 h	lower Emax compared to Sage-217	110 nM	10%	100%	–	0.0±0.0	0.0±0.0	1800.0 ± 0.0 s	1800.0 ± 0.0 s	partial protective effects	significant protective effects	970%	–
C[C@@]1(O)CC[C@H]2[C@H](CC[C@@H]3[C@@H]2CC[C@]2(C)[C@@H](C(=O)Cn4cc(C#N)cn4)CC[C@@H]32)C1 [Sage-217, reference compound]	9160 ng·h/mL	1510 ng/mL	1 h	–	–	–	0%	100%	100%	0.9±0.3	0.0±0.0	1012.3 ± 181.4 s	1800.0 ± 0.0 s	–	significant protective effects	–	120 nM

From EP4711377A1, “STEROID COMPOUND, PREPARATION METHOD THEREFOR, AND USE THEREOF” (Shujing Biopharma Co., Ltd, priority 2023, dated 2024)
